From US8217141B2, “Crystalline and amorphous forms of peptide” (Neopro Labs, LLC, priority 2007, dated 2012)
Where a SMILES comes first, the peptide text is derived from it.

Legend:
[1] = Dynamic vapor sorption/desorption (DVS); type: physicochemical; settings: for weight gain, adsorption: 5%-95% RH; for weight loss, desorption: 95%-5% RH
Protocol: Moisture sorption/desorption data were collected on a VTI SGA-100 Vapor Sorption Analyzer. Sorption and desorption data were collected over a range of 5% to 95% relative humidity (RH) at 10% RH intervals under a nitrogen purge. Samples were not dried prior to analysis. Equilibrium criteria used for analysis were less than 0.0100% weight change in 5 minutes, with a maximum equilibration time of 3 hours if the weight criterion was not met. Data were not corrected for the initial moisture content of the samples. Sodium chloride and polyvinypyrrolidine were used as calibration standards.

[2] = Approximate solubility, solvent addition method; type: physicochemical; settings: ambient temperature
Protocol: A weighed sample of SEQ ID NO:1 (a polypeptide of amino acids F-L-P—S) was treated with aliquots of the test solvent at ambient temperature. Complete dissolution of the test material was determined by visual inspection. Solubility was estimated based on the total solvent used to provide complete dissolution. The actual solubility may be greater than the value calculated because of the use of solvent aliquots that were too large or due to a slow rate of dissolution. […] If complete dissolution was achieved as a result of only one aliquot addition, the solubility is expressed as “greater than”.

CC(C)CC(NC(=O)C(N)Cc1ccccc1)C(=O)N1CCCC1C(=O)NC(CO)C(=O)O (centres unmarked) [SEQ ID NO: 1] (H-FLPS-OH; configuration not given here)
weight gain, adsorption [1]: 5%-95% RH; 25.0 w % (gain),
weight gain, adsorption ([1]; listed as SEQ ID NO:1): 25.0 w %
weight loss, desorption [1]: 95%-5% RH; 28.2 w % (loss)
weight loss, desorption ([1]; listed as SEQ ID NO:1): 28.2 w %
final weight loss after the desorption step ([1]; at ~5% RH, relative to original weight): 4.4%
initial weight loss ([1]; on equilibration at ~5% RH, as received material): 1.3%
weight gain on the sorption step ([1]; up to ~95% RH, relative to original weight): approximately 23.7%
solubility ([2]; 1-Butanol): ≥ 43 mg/mL
solubility ([2]; 2-Butanone): ≥ 20 mg/mL
solubility ([2]; 2-Propanol): ≥ 20 mg/mL
solubility ([2]; Acetone): ≥ 40 mg/mL
solubility ([2]; Acetonitrile (ACN)): ≥ 19 mg/mL
solubility ([2]; Chloroform): ≤ 1.9 mg/mL
solubility ([2]; Dichloromethane (DCM)): ≥ 20 mg/mL
solubility ([2]; Ethanol (EtOH)): ≥ 52 mg/mL
solubility ([2]; Ethyl acetate (EtOAc)): ≥ 20 mg/mL
solubility ([2]; Heptane): ≤ 2 mg/mL
solubility ([2]; Isopropyl ether): ≤ 2.7 mg/mL
solubility ([2]; Methanol (MeOH)): ≥ 50 mg/mL
solubility ([2]; Pentane): ≤ 2 mg/mL
solubility ([2]; Tetrahydrofuran (THF)): ≥ 44 mg/mL
solubility ([2]; Toluene): ≤ 3.6 mg/mL
solubility ([2]; Water, visual inspection): ≥ 60 mg/mL
